Assays:
[1] = system: Ube3A; assay: Ube3A protein in hippocampus of wild-type mice after a single TOP injection; type: in vivo; conditions: single bilateral hippocampal injection of TOP 275 μg
Description: Whole frozen mouse hippocampi, human brain specimens, and cultured cells were homogenized in RIPA buffer (ThermoFisher) supplemented with protease and phosphatase inhibitor cocktail (ThermoFisher), using a Teflon dounce homogenizer and centrifuged at 14,000 rpm for 10 minutes at 4° C. Supernatants were collected, normalized by BCA assay (ThermoFisher), and prepared for loading using sample buffer (SB) 4× (ThermoFisher) and dithiothreitol (DTT) 10× (ThermoFisher).
Controls were wild type mice injected with PBS.

[2] = system: Ube3A; assay: Ube3A protein degradation in B35 cells (cycloheximide chase); type: cell-based, rat; conditions: CHX and oAβ for 4, 8 and 16 hours
Description: FIG. 5A is a graph showing the quantification of Western blots of the levels of Ube3A and GAPDH (as house-keeping protein) of B35 cells treated with cycloheximide (CHX) or CHX and oAβ for 4, 8 and 16 hours. […] Graphs represent mean values and standard deviation. Significance determined by one-way ANOVA followed by Tukey Post Hoc multiple comparisons.

[3] = system: EphB2; assay: Western blot of surface expressed EphB2 in hippocampal neurons; type: cell-based, rat; conditions: oAβ treated
Description: Enriched primary rat hippocampal neurons, cultured for 21 days in vitro, were treated with synthetic soluble oligomeric Aβ1-42 (hereinafter “oAβ”) for 24 hours. No cell death was detected under these conditions (data not shown).
Since Ube3A is also expressed in astrocytes (Grier et al. 2015), it was determined whether Ube3A levels were also altered in these cells.

[4] = system: Lfc; assay: Levels or activities of Lfc in hippocampal neurons; type: cell-based, rat; conditions: hippocampal neurons treated with oAβ (results not shown)

Row | Compound | persistence of increased Ube3A expression after the single injection [1] | Ube3A expression in the hippocampus ([1]; after 1 month) | degradation rate of the Ube3A protein [2] | levels of surface expressed EphB2 protein [3] | levels or activities of Lfc [4]
1 | CC[C@@]1(O)C(=O)OCc2c1cc1n(c2=O)Cc2cc3c(CN(C)C)c(O)ccc3nc2-1 [TOP, topotecan] | up to 5 months | sustained increase | – | – | –
2 | oAβ: synthetic soluble oligomeric Aβ1-42 | – | – | significantly increased | decrease | no observation of any differences

Reference: US20200138921A1, “METHODS OF PREVENTING AND TREATING DISEASES CHARACTERIZED BY SYNAPTIC DYSFUNCTION AND NEURODEGENERATION INCLUDING ALZHEIMER'S DISEASE” (The Trustees of Columbia University in the City of New York, priority 2017, published 2020)
